From patent US11098336B2, “Biosynthesis of bioorthogonal amino acids” (The Regents of the University of California, priority 2017, dated 2021)

Experiments:
[1] = biological target: BesE (Streptantibioticus cattleyicolor, UniProt F8JJ27); assay: BesE hydroxylation in vitro in the presence of ascorbate and α-KG; assay type: biochemical, Streptomyces cattleya
From the text: Knockout strain of putative amino acid hydroxylase, BesE, was only capable of producing Pra. […] This lead us to believe that there might be an amino acid carrier that serves as the true substrate for BesE. Through comparative metabolomics, we were able to identify a metabolite enriched in S. cattleya ΔbesE over wildtype. This compound was also present, but at low concentration, in S. cattleya ΔbesA. We identified this compound as having mass consistent with a Pra-Glu dipeptide. When this compound was fragmented we were able to detect characteristic fragments consistent with an amide bond cleavage, supporting evidence that this compound is a Pra-Glu dipeptide.
The last dedicated enzyme involved in the biosynthesis of βes is BesE. Once we had identified Pra-Glu as the product of BesA, it became apparent that the true substrate of BesE is a Pra-Glu dipeptide. S. cattleya ΔbesB, ΔbesC, ΔbesD, and ΔbesE were unable to produce measurable amounts of the dipeptides in vivo. In comparison, ΔbesA was still able to produce βes-Glu but at lower titers when compared to S. cattleya wildtype.

[2] = system: cystathionine-γ-lyase; conditions: previously identified; cited from earlier work
[3] = biological target: BesA (Streptantibioticus cattleyicolor, UniProt G8XHD8); assay: BesA dipeptide formation in vitro with glutamate and ATP, substrate specificity; assay type: biochemical, Streptomyces cattleya; conditions: for activity as BesA substrate (ligation to glutamate): reacted with glutamate, ATP
From the text: We then explored the specifity of BesA by reacting glutamate with norvaline, allylglycine, and the remaining 19 canonical amino acids.
BesA shares homology to carboxylate-amine ligases, which form amides between amines and carboxylates through an ATP-dependent mechanism.

[4] = biological target: T1, BesB (Streptantibioticus cattleyicolor, UniProt G8XHD7); assay: BesB terminal-alkyne (Pra) formation in vitro; isomerization, D2O exchange and PLP-conjugate trapping; assay type: biochemical, Streptomyces cattleya; conditions: for binding to BesB as PLP-conjugate: chemical reduction with imine-reducing reagents; for formation of Pra by BesB from substrate: in vitro
T1 construct: made in house
Description: We next turned our attention to formation of the terminal-alkyne. BesB belongs to a family of proteins that utilize pyrodoxyal-5′-phosphate (PLP) as cofactor. Incubating purified BesD, BesC, and BesB in the presence of iron, ascorbate, lysine, and PLP was sufficient to produce Pra in vitro. This order of events is […] to how terminal-alkynes are synthesized chemically, since biosynthesis of Pra involves elimination of an alkyl-halide to a terminal-alkyne. Terminal desaturations have previously only been observed on fatty acids and catalyzed by O2/di-iron dependent fatty acid desaturases. […] From in vitro characterization, we also found it was necessary for the amino acid substrate to be halogenated at the Cγ position.
(§1) While formation of allene-quinonoid can be mechanistically explained, there is no precedence of an enzyme catalyzed allene-alkyne isomerization. One possibility is that BesB forms α-allenyl-glycine enzymatically and isomerization occurs after α-allenyl-glycine is released from PLP. […] Another possibility is BesB produces and releases α-allenyl-glycine, and is subsequently enzymatically isomerized. […] Finally, we explored the possibility of α-allenyl-glycine binding to BesB as a PLP-conjugate by chemically reducing the whole complex with imine-reducing reagents.

[5] = biological target: BesD from S. cattleya (Streptantibioticus cattleyicolor, UniProt G8XHD5); assay: BesD enzyme-coupled assay that reports on succinate production; assay type: biochemical, Streptomyces cattleya
From the text: Activity of BesD from S. cattleya on L-lysine was first screened using an enzyme-coupled assay that reports on succinate production.

[6] = spontaneous isomerization of free α-allenyl-glycine in buffered solution / D2O; assay type: physicochemical
From the text: as §1

[7] = biological target: T2, BesC (Streptantibioticus cattleyicolor, UniProt F8JJ25); assay: BesC coupled reaction with BesD, cofactors and lysine; assay type: biochemical, Streptomyces cattleya; conditions: cofactors
T2 construct: made in house
From the text: To further characterize BesC, we then tested the ability of BesC to produce 4-Cl-allygllycine in vitro. Addition of Fe(II) to purified apo-enzyme supports the observed reaction, while omission of Fe(II) results in no reaction, supporting the Fe-dependence of the enzyme.

T1 sequence (G8XHD7 whole entry): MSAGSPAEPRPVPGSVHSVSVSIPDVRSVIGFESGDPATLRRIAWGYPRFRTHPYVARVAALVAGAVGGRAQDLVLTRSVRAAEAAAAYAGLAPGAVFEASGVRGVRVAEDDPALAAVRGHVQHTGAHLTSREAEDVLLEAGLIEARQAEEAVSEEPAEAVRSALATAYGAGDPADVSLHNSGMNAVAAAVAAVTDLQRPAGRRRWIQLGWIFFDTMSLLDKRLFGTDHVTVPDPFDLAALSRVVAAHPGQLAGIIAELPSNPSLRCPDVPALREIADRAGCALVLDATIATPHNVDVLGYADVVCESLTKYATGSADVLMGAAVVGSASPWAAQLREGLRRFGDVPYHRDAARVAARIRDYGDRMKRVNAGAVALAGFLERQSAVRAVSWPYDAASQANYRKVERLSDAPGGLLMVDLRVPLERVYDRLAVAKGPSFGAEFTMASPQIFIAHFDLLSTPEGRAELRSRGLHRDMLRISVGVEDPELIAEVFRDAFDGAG
Chain of BesA (G8XHD8 whole entry): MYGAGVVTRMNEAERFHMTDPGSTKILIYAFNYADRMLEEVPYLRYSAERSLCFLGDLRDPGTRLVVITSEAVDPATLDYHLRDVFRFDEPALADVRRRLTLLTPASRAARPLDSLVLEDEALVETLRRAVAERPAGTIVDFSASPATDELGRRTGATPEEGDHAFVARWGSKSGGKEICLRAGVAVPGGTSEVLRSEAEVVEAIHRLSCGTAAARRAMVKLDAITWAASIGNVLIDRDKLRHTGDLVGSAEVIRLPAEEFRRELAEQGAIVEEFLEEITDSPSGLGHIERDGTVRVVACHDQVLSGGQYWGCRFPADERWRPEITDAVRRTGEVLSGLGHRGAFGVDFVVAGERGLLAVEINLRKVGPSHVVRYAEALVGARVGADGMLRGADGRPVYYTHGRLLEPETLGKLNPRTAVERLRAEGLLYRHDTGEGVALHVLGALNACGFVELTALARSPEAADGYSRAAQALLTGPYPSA
Chain of BesD from S. cattleya (G8XHD5 whole entry): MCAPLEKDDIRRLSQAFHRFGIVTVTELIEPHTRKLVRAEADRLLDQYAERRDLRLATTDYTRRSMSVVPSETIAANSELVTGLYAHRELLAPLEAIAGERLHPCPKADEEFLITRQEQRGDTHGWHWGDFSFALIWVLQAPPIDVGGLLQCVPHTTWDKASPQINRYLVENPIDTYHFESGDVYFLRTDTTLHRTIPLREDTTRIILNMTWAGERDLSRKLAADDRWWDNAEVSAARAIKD
Chain of BesE (F8JJ27 whole entry, the tested form may be a part): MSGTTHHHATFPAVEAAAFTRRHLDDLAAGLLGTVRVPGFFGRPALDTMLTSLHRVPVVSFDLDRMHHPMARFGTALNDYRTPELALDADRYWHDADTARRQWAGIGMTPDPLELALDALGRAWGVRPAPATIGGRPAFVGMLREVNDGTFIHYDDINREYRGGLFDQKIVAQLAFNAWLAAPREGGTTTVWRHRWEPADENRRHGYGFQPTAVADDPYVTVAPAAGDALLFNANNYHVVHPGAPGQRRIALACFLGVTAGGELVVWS
T2 sequence (F8JJ25 whole entry): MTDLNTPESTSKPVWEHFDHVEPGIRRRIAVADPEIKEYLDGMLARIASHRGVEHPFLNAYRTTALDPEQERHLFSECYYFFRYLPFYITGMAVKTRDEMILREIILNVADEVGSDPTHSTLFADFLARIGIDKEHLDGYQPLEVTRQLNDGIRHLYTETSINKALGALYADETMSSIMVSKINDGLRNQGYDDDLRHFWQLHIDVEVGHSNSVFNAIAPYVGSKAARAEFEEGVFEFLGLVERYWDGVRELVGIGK

For C#CCC(N)C(=O)O (stereo not shown) [Pra, propargylglycine], the “reaction with BesE (hydroxylation)” value [1] is given as “no reaction was observed”, the “inhibition of PLP proteins including cystathionine-γ-lyase” value [2] is given as “mechanistic, suicide inhibitor” and the “Km for Pra relative to Km for Cys” value ([3]; BesA substrate) is given as 10 fold lower. For the same molecule, the “kcat, Pra compared with Cys” value ([3]; BesA substrate) was “comparable”, the “activity as BesA substrate (ligation to glutamate)” value (“activity as BesA substrate” for short) [3] was “measurable activity” and the “binding to BesB as PLP-conjugate” value [4] was “able to observe Pra as a PLP bound species”.
For CCC[C@H](N)C(=O)O [norvaline], the “BesD activity with substrate (rate of NADH production)” value (from here on “BesD activity with substrate”) [5] was “no activity” and the “activity as BesA substrate” value [3] was “Pra and Cys were the only two amino acids to show any measurable activity”.
With C=C=CC(N)C(=O)O (stereo not drawn) [α-allenyl-glycine, reference compound] the “spontaneous formation of Pra” value ([6]; buffered solution, 24 h, room temperature) was “did not produce detectable amounts of Pra”, the exchange with solvent ([6]; incubated in D2O, no enzyme) was “negligible exchange” and the “binding to BesB as PLP-conjugate” value [4] was “unable to bind BesB”. For the same molecule, the “D2O exchange in the presence of BesB” value ([4]; incubated with BesB in D2O) was “neglible D2O exchange” and the “isomerization by BesB” value ([4]; incubated with BesB in D2O) was “no isomerization”.
In the case of NCCCC[C@H](N)C(=O)O [L-lysine], the “BesD activity with substrate” value [5] is reported as “greatest” and the “accepted as BesC substrate” value [7] is reported as “accepts lysine as a substrate directly to form allylglycine”.
In the case of C#CC[C@H](NC(=O)CC[C@H](N)C(=O)O)C(=O)O [Glu-Pra dipeptide, γ-Glu-α-Pra], the “reaction with BesE (hydroxylation)” value [1] is reported as “able to hydroxylate”.
With C=C(Cl)CC(N)C(=O)O (stereo not shown) [4-Cl-allylglycine] the “formation of Pra by BesB from substrate” value [4] was “able to form Pra”.
In the case of C=C(Br)CC(N)C(=O)O (stereo not shown) [4-Br-allylglycine], the “formation of Pra by BesB from substrate” value [4] is reported as “able to form Pra”.
With N[C@@H](CS)C(=O)O [Cys, cysteine] the “activity as BesA substrate” value [3] was “measurable activity”.
For N=C(N)NCCC[C@H](N)C(=O)O [arginine], the “BesD activity with substrate” value [5] was “no activity”.
In the case of C=CCC(N)C(=O)O (stereo not shown) [allylglycine], the “activity as BesA substrate” value [3] is reported as “Pra and Cys were the only two amino acids to show any measurable activity” and the “formation of Pra by BesB from substrate” value [4] is reported as “not when allylglycine is a substrate”.
